The record followed here is patent US9573899B2, “USP7 inhibitor compounds and methods of use” (Genentech, Inc., priority 2015, dated 2017).

One assay concerns the target T1, USP7 (Homo sapiens, UniProt Q93009).
T1 construct: USP7, full-length, native C-Terminus, 0.2 nM
Put plainly: Ub-Rho110 DUB assay, Table 2, USP7. It counts as biochemical.

The target in a further assay is T2, USP47 (Homo sapiens, UniProt Q96K76).
T2 sequence (Q96K76 1-1375): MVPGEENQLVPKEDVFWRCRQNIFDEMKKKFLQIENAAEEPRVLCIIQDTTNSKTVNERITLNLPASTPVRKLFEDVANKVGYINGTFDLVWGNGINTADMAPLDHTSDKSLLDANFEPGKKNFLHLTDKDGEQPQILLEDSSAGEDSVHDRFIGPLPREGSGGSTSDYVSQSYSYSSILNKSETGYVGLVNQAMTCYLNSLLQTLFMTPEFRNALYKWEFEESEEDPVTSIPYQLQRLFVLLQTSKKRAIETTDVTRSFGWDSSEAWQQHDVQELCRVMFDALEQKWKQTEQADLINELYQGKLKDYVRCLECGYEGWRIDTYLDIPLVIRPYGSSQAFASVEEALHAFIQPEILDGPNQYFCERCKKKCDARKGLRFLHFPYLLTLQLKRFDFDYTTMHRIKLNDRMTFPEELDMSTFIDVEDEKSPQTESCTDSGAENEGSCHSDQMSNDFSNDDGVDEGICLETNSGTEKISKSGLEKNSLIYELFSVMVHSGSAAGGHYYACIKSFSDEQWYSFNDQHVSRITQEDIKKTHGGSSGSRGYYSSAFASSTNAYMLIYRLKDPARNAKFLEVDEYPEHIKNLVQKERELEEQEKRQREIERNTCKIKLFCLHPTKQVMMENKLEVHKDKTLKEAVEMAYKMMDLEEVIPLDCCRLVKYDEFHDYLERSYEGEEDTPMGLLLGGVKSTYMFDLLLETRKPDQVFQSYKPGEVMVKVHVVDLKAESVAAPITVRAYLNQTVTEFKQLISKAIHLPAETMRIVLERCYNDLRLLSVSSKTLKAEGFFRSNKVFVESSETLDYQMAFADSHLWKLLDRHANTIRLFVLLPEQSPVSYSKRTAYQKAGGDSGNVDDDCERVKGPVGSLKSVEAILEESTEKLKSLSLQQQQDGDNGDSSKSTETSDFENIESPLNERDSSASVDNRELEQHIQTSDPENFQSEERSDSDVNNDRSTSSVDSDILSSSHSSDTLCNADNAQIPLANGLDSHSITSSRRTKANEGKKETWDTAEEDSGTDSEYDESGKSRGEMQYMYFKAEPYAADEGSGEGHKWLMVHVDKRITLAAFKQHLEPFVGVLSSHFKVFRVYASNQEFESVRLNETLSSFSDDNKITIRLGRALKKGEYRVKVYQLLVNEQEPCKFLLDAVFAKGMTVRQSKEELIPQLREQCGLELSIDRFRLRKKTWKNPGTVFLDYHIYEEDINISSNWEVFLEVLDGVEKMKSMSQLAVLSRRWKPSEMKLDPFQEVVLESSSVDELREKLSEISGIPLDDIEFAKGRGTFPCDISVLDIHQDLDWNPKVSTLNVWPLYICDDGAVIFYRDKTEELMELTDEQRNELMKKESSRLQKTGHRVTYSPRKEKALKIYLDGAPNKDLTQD
Description: Ub-Rho110 DUB assay, Table 2, USP47. It counts as biochemical.

Assay [1] has as its system p53 and p21 in HCT116 colon cancer cell lines. Put plainly: Western blot of p53 and p21 in isogenic HCT116 cell lines (FIG. 2A). It counts as cell-based, Human. The following applies: isogenic HCT116: wild-type, USP7 null. On the procedure: (§1) In 24-well plates, 0.10-0.15×10^6 (adherent) or 0.5×10^6 (suspension) cells were treated with 15 μM or 2.5 μM compounds, respectively, for 24 h in low serum prior to lysis for Western Blot analysis.
In general terms: A western blot detects proteins with antibodies after separation by electrophoresis.

For the next assay, the target named is T3, endogenous USP7 (Homo sapiens, UniProt Q93009).
T3 construct: endogenous in cells; host or cells: 293T cell lysate
T3 sequence (Q93009 whole entry): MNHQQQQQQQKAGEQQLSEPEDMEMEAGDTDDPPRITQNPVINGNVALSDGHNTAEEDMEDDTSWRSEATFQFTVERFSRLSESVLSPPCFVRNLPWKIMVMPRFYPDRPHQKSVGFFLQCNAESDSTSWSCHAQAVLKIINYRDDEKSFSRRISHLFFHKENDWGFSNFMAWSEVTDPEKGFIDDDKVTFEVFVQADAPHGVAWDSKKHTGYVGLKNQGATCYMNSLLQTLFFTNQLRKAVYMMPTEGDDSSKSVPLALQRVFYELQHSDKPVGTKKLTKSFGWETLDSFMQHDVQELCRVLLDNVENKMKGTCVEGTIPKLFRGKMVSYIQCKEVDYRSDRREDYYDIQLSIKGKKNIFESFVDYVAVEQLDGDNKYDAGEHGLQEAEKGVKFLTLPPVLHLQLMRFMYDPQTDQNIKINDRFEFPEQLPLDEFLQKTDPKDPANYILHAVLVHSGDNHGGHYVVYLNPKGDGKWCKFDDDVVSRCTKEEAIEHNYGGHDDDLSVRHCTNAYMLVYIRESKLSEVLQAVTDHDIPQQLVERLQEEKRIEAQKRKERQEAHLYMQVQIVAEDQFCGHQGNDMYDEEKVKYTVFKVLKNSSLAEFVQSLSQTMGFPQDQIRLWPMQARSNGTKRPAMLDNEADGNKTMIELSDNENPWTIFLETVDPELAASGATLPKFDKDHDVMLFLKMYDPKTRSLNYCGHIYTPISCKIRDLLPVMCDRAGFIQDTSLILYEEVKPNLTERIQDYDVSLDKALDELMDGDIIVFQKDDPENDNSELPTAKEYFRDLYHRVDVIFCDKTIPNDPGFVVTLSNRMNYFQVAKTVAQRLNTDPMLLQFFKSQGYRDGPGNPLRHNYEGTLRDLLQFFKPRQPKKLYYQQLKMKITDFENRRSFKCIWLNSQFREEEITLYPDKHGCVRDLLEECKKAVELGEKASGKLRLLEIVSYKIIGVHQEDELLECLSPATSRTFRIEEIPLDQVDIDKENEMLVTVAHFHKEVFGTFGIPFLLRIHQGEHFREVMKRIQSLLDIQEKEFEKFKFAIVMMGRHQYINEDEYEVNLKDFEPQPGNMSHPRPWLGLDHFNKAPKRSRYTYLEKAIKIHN
Description: Activity-based profiling of deubiquitinases with HA-tagged ubiquitin probes, western blot (FIG. 5, 6). It counts as biochemical. The settings on record: 15 μM, 293T cell lysate.

For assay [2], the system named is MCF-7, U Os, normal osteoblast, MDA-MB157 and SaOs cell lines. Put plainly: CellTiter-Glo viability of tumor, matched normal and p53 null cell lines (FIG. 9). It counts as cell-based. On the procedure:
2,500-5,000 cells were seeded in 1-well of a 96-well plate (Corning; 3904). The following day, the media was changed from normal (10%) to low serum (0.5%) containing vehicle (DMSO) or compounds. 16-24 h later FBS was added to each well to bring serum levels back to normal (10%). Cells were then allowed to grow for 2 days. All treatments were done in triplicate.
(§2) Seventy two hours after compounds were added, CellTitre Glo (CTG) reagent was added following the protocol provided by the manufacturer (Promega). In the experiment to test compound dependency on USP7, 3× more USP7 null cells were plated per well (7,500 vs. 2,500 for wild-type (WT) cells), given the slower proliferation of USP7 null cells. For the multiple myeloma experiment, cells seeded in low serum and treated with compounds immediately. Twenty four hours later, serum was added back to normal levels. CTG assay was done 24 h later i.e. 48 h after compounds were added instead of 72 hrs later for the adherent cells.

The test system of assay [3] is U2Os p53 WT osteosarcoma cells. Put plainly: Incucyte cell proliferation and caspase activity, U2Os (FIG. 11, 16). It counts as cell-based. The following applies: U2Os p53 WT compared to SaOs p53 null cells; compared to 89. How it is done:
(§3) 2,500-5,000 cells were seeded in 1-well of a 96-well plate (Corning; 3904). The following day, the media was changed from normal (10%) to low serum (0.5%) containing vehicle (DMSO) or compounds. 16-24 h later FBS was added to each well to bring serum levels back to normal (10%). Cells were then allowed to grow for 2 days. All treatments were done in triplicate. The day after cells were seeded, the media was changed to low serum media containing 2 μM CellEvent Caspase 3/7 reagent (Life Technologies; C10423) and compounds. The plates were placed in an IncuCyte (Essen Bioscience, Inc.) live cell imager and scanning was started 15-20 mins after. IncuCyte™ ZOOM facilitates live-cell monitoring via customized imaging protocols. Images were taken every 2 h for at least 3 days, using a 10× objective. Phase contrast was used to measure cell confluency/density while green fluorescence was used to measure caspase activity. The images were analyzed using IncuCyte software (Basic Analysis parameters) and a ratio of caspase activity to cell density was determined.

Assay [4] relates to KMS-21BM and KMS-28PE multiple myeloma cells. Description: Cell Titer Glo viability of multiple myeloma cells (FIG. 13A). It counts as cell-based. The settings on record: compared to 89. How it is done:
as §2

The test system of assay [5] is p21 in KMS-21BM and KMS-28PE multiple myeloma cells. Description: Western blot in multiple myeloma cells (FIG. 13B). It counts as cell-based. The settings on record: compared to 89. On the procedure:
as §1

Assay [6] relates to colon cancer cell lines RKO and RKO-E6, and cervical cancer cell lines Vibo and SiHA. Put plainly: Incucyte cell proliferation in RKO, RKO-E6, Vibo and SiHA cells (FIG. 15). It counts as cell-based. On the procedure: as §3

“Also recorded” adds a separate entry of the source.

T1 sequence (Q93009 whole entry): as above
Description for endogenous USP7: 293T cells at 80% confluency are harvested by rinsing the plate one time with 10 ml PBS followed by scraping. Cells are cleared by spinning them for 3 min at 350 g at 4° C. and the pellet is flash-frozen in liquid nitrogen and stored at −80° C. until lysis. Frozen cells are lysed by quickly re-thawing them in Buffer A (50 mM Tris-HCl pH 7.5, 250 mM Sucrose, 5 mM TCEP, 2 mM ATP, 50 μM phenylmethylsulfonyl fluoride (PMSF), 120 mM NaCl, 5 mM MgCl2) and the lysate is cleared by centrifugation by spinning at 18,000 g at 4° C. […] Subsequently, the 4 samples are all incubated with 6.6 μg/ml of either one of the following activity-based DUB probes (the same probe for each of the 4 samples): HA-tagged ubiquitin vinyl sulfone (Boston Biochem, Cambridge, Mass.), HA-tagged ubiquitin propargylamine (UbiQ Bio BV, Amsterdam, The Netherlands) or HA-tagged ubiquitin vinylmethyl ester (UbiQ Bio BV, Amsterdam, The Netherlands), 1200 rpm, at 25° C., for 1 hr. The reaction is terminated by adding a 20% SDS solution to a final concentration of 0.4% for at least 30 min at room temperature, rotating. Subsequently, the reacted lysate is diluted 10× with Buffer B (50 mM Tris-HCl pH 7.5, 150 mM NaCl, 5 mM EDTA, protease inhibitor cocktail EDTA-free (Roche, Mannheim, Germany), 50 μM PMSF, 0.5% NP-40). 60-100 μl slurry depending on input protein amount of pre-equilibrated anti-HA affinity matrix (Roche, Mannheim, Germany) are added and HA-tagged proteins are immunopurified with this matrix by rotating the samples over night at 4° C. The next day the beads are washed with the following buffers in this order: three times ice-cold Buffer B, one time ice-cold Buffer B NP-40 free, and three times ice-cold 15 mM TEAB pH 8.5. Spins between washes are performed at 2000 g and 4° C. […]

The term IC50 denotes the point on the concentration scale where inhibition reaches its midpoint. For the compound `CCc1c(-c2ccc3[nH]ncc3c2)cnc(N)c1-c1ccc(O)cc1` [Compound 88, 4-[2-amino-4-ethyl-5-(1H-indazol-5-yl)-3-pyridyl]phenol], the IC50 was 980 nM on USP7 and over 200000 nM against USP47. Moreover, the “selectivity of antagonism of USP7 catalytic activity over the DUBs evaluated” value on USP7 (conclusion from Table 2 (USP7, USP7 cat, USP47, USP5)) is given as “selective antagonists of USP7 catalytic activity”. In addition, the “stabilization of p53 and p21 (western blot)” value in [1] was “stabilize p53 and p21”. At endogenous USP7 (evaluated by western blotting), the “selective antagonism of endogenous USP7 over other DUBs” value was “selective DUB inhibition; also recorded: selectively antagonizes endogenous USP7 over other DUBs”. The “HA-probe-conjugated band corresponding to USP7” value at endogenous USP7 (western blot) is recorded as “decreased”. Further, the “cell viability (CellTiter-Glo), wild-type p53 tumor cell lines” value in [2] (MCF-7 and U Os, relative to compound 89) is recorded as “decreased viability”. The “cell viability (CellTiter-Glo), matched normal and p53 null cell lines” value in [2] (normal osteoblast cell lines, p53 null MDA-MB157 and SaOs) is “do not show similar decreases in cell viability”. For the same compound, the “cell viability (Incucyte proliferation and caspase activity)” value in assay [3] is “decreases cell viability”. Moreover, the “cell viability (Cell Titer Glo signal)” value in assay [4] was “decrease in cell viability”. Further, the “p21 levels (western blot)” value in assay [5] was “increases p21 levels”. Also, the “cell viability (Incucyte cell proliferation)” value in assay [6] was “decreases cell viability”.
